Columns and labels:
Assay type in all cases: cell-based
MYB mRNA [1] = assay: Splicing RT-qPCR assay (THP), Table 2A; conditions: Table 2A (THP); for AC50: AJ mRNA increase, read-out: MYB AJ (increase in alternative junction mRNA, AC50); for IC50: CJ mRNA decrease, read-out: MYB CJ (decrease in canonical junction mRNA, IC50)
[2] = tested on: SH-SY5Y (human neuroblastoma) cells; assay: Cell viability, Cell Titer Glo 2.0 assay; conditions: read-out: Viability SHSY5Y.3 GI50
Method in brief: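 SH-SY5Y cells were exposed to serially diluted compounds in IMDM with 10% FBS and 0.1% DMSO for 72 hours at 37° C., 5% CO2. Viability was measured by CellTiter-Glo 2.0 luminescence, with medium-only wells as blank.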

HTT mRNA [3] = assay: Splicing RT-qPCR assay (THP), Table 2A; conditions: Table 2A (THP); for AC50: AJ mRNA increase, read-out: HTT AJ (increase in alternative junction mRNA, AC50); for IC50: CJ mRNA decrease, read-out: HTT CJ (decrease in canonical junction mRNA, IC50)
MYB mRNA [4] = assay: Gene panel canonical junction qPCR assay, decrease in CJ mRNA, Table 3; conditions: decrease in canonical junction (CJ) mRNA, gene panel qPCR, Table 3
Method in brief: (§1)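 Canonical exon-junction (CJ) transcript measured by 5′ nuclease RT-qPCR, normalized to GAPDH, GUSB or PPIA and to DMSO control (2^(−ΔΔCt)). A673 or K562 cells treated 24 h at 37° C with an 11-point 3-fold dilution series, top 10 uM, DMSO ≤0.25%. IC50 from 4-parameter logistic fit of percentage CJ decrease.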

HTT mRNA [5] = assay: as above; conditions: decrease in canonical junction (CJ) mRNA, gene panel qPCR, Table 3
Method in brief: as §1

SMN2 mRNA = assay: as above; conditions: decrease in canonical junction (CJ) mRNA, gene panel qPCR, Table 3
Method in brief: as §1

Compound	AC50 (MYB mRNA [1]) [µM]	IC50 (MYB mRNA [1]) [µM]	GI50 [2] [µM]	AC50 (HTT mRNA [3]) [µM]	IC50 (HTT mRNA [3]) [µM]	IC50 (MYB mRNA [4]) [µM]	IC50 (HTT mRNA [5]) [µM]	IC50 (SMN2 mRNA) [µM]
CN[C@H]1C[C@@H](C)N(c2ccc(C(=O)Nc3cc(F)c4nc(C)cn4c3)c3nn(C)cc23)C1 (single isomer, unassigned) [Compound 128]	0.1 to 1	0.1 to 1	1 to 10	1 to 10	1 to 10	0.1 to 1	0.1 to 1	< 0.1
CN[C@H]1CCN(c2ccc(C(=O)Nc3cc(F)c4nc(C)cn4c3)c3nn(C)cc23)[C@H]1C (single isomer, unassigned) [Compound 152]	> 10	1 to 10	> 10	> 10	> 10	1 to 10	> 10	0.1 to 1
CN[C@@H]1CCN(c2ccc(C(=O)Nc3cc(F)c4nc(C)cn4c3)c3nn(C)cc23)[C@@H]1C (single isomer, unassigned) [Compound 153]	< 0.1	< 0.1	0.1 to 1	0.1 to 1	0.1 to 1	< 0.1	0.1 to 1	< 0.1
CN[C@H]1CCN(c2ccc(C(=O)Nc3cc(F)c4nc(C)cn4c3)c3nn(C)cc23)[C@@H]1C (single isomer, unassigned) [Compound 154]	0.1 to 1	1 to 10	0.1 to 1	> 10	> 10	0.1 to 1	> 10	< 0.1
COCCN[C@@H]1CCN(c2ccc(C(=O)Nc3cc(F)c4nc(C)cn4c3)c3nn(C)cc23)C1 [Compound 113, N-(8-fluoro-2-methyl-imidazo[1,2-a]pyridin-6-yl)-4-[(3R)-3-(2-methoxyethylamino)pyrrolidin-1-yl]-2-methyl-indazole-7-carboxamide]	0.1 to 1	0.1 to 1	1 to 10	> 10	> 10	0.1 to 1	> 10	< 0.1
COCC1(N[C@H]2CCN(c3ccc(C(=O)Nc4cc(F)c5nc(C)cn5c4)c4nn(C)cc34)C2)CC1 [Compound 118, (S)—N-(8-fluoro-2-methylimidazo[1,2-a]pyridin-6-yl)-4-(3-((1-(methoxymethyl)cyclopropyl)amino)pyrrolidin-1-yl)-2-methyl-2H-indazole-7-carboxamide]	1 to 10	0.1 to 1	> 10	> 10	> 10	1 to 10	1 to 10	0.1 to 1
COCC1(N[C@@H]2CCN(c3ccc(C(=O)Nc4cc(F)c5nc(C)cn5c4)c4nn(C)cc34)C2)CC1 [Compound 119, (R)—N-(8-fluoro-2-methylimidazo[1,2-a]pyridin-6-yl)-4-(3-((1-(methoxymethyl)cyclopropyl)amino)-pyrrolidin-1-yl)-2-methyl-2H-indazole-7-carboxamide]	0.1 to 1	0.1 to 1	1 to 10	> 10	> 10	0.1 to 1	1 to 10	0.1 to 1
CN[C@@H]1C[C@@H](C)N(c2ccc(C(=O)Nc3cc(F)c4nc(C)cn4c3)c3nn(C)cc23)C1 [Compound 129, N-(8-fluoro-2-methyl-imidazo[1,2-a]pyridin-6-yl)-2-methyl-4-[(2R,4R)-2-methyl-4-(methylamino)pyrrol-idin-1-yl]indazole-7-carboxamide]	0.1 to 1	< 0.1	1 to 10	1 to 10	1 to 10	0.1 to 1	1 to 10	< 0.1
CCN[C@@H]1CCN(c2cc(O)c(C(=O)Nc3cc(F)c4nc(C)cn4c3)c3nn(C)cc23)C1 [Compound 144, 4-[3-(ethylamino)pyrrolidin-1-yl]-N-(8-fluoro-2-methyl-imidazo[1,2-a]pyridin-6-yl)-6-hydroxy-2-methyl-indazole-7-carboxamide]	< 0.1	< 0.1	0.1 to 1	> 10	> 10	< 0.1	> 10	< 0.1
CN[C@H]1CCN(c2c(O)cc(C(=O)Nc3cc(F)c4nc(C)cn4c3)c3nn(C)cc23)C1 [Compound 149, N-(8-fluoro-2-methyl-imidazo[1,2-a]pyridin-6-yl)-5-hydroxy-2-methyl-4-[(3S)-3-(methylamino)pyrrolidin-1-yl]-indazole-7-carboxamide]	> 10	1 to 10	1 to 10	> 10	> 10	1 to 10	1 to 10	0.1 to 1
CN[C@@H]1CCN(c2ccc(C(=O)Nc3cc(F)c4nc(C)cn4c3)c3nn(C)cc23)[C@H]1C [Compound 155, N-(8-fluoro-2-methylimidazo-[1,2-a]pyridin-6-yl)-2-methyl-4-[(2S,3R)-2-methyl-3-(methylamino)-pyrrolidin-1-yl]indazole-7-carboxamide]	1 to 10	> 10	0.1 to 1	> 10	> 10	1 to 10	> 10	1 to 10
Cc1cn2cc(NC(=O)c3c(F)cc(N4CC[C@H](NCC56CC(CO5)C6)C4)c4cn(C)nc34)cc(F)c2n1 [Compound 157, 6-fluoro-N-(8-fluoro-2-methyl-imidazo[1,2-a]pyridin-6-yl)-2-methyl-4-[(3S)-3-(2-oxabicyclo[2.1.1]hexan-1-ylmethylamino)pyrrolidin-1-yl]indazole-7-carboxamide]	< 0.1	< 0.1	1 to 10	> 10	> 10	0.1 to 1	> 10	< 0.1
CN[C@H]1CCN(c2ccc(C(=O)Nc3cc(F)c4nc(C)cn4c3)c3c2nnn3C)C1 [Compound 160, N-(8-fluoro-2-methyl-imidazo[1,2-a]pyridin-6-yl)-3-methyl-7-[(3S)-3-(methylamino)-pyrrolidin-1-yl]benzotriazole-4-carboxamide]	> 10	> 10	> 10	> 10	> 10	> 10	> 10	> 10
CN[C@H]1CCN(c2ccc(C(=O)Nc3cc(F)c4nc(C)cn4c3)c3nn(C)nc23)C1 [Compound 163, (S)-N-(8-fluoro-2-methylimidazo-[1,2-a]pyridin-6-yl)-2-methyl-7-(3-(methylamino)pyrrolidin-1-yl)-2H-benzo[d]-[1,2,3]triazole-4-carboxamide]	0.1 to 1	1 to 10	0.1 to 1	1 to 10	0.1 to 1	0.1 to 1	0.1 to 1	< 0.1
CN[C@H]1CCN(c2ccc(C(=O)Nc3cc(F)c4nc(C)cn4c3)c3nnn(C)c23)C1 [Compound 166, (S)-N-(8-fluoro-2-methylimidazo-[1,2-a]pyridin-6-yl)-1-methyl-7-(3-(methylamino)pyrrolidin-1-yl)-1H-benzo[d]-[1,2,3]triazole-4-carboxamide]	0.1 to 1	1 to 10	1 to 10	> 10	> 10	0.1 to 1	> 10	< 0.1
CCNC1CCN(c2ccc(C(=O)Nc3cc(OC)c4nc(C)cn4c3)c3nn(C)cc23)CC1 [Compound 175, 4-(4-(ethylamino)piperidin-1-yl)-N-(8-methoxy-2-methyl-imidazo-[1,2-a]pyridin-6-yl)-2-methyl-2H-indazole-7-carboxamide]	< 0.1	< 0.1	1 to 10	1 to 10	1 to 10	0.1 to 1	0.1 to 1	< 0.1
CCNC1CCN(c2ccc(C(=O)Nc3ccc4nc(C)cn4c3)c3nn(C)cc23)CC1 [Compound 176, 4-[4-(ethylamino)-1-piperidyl]-2-methyl-N-(2-methylimidazo[1,2-a]pyridin-6-yl)-indazole-7-carboxamide]	0.1 to 1	0.1 to 1	0.1 to 1	1 to 10	> 10	0.1 to 1	1 to 10	< 0.1
CCNC1CCN(c2ccc(C(=O)Nc3cc(F)c4nc(C(C)C)cn4c3)c3nn(C)cc23)CC1 [Compound 177, 4-[4-(ethylamino)-1-piperidyl]-N-(8-fluoro-2-isopropyl-imidazo[1,2-a]pyridin-6-yl)-2-methyl-indazole-7-carboxamide]	> 10	1 to 10	0.1 to 1	> 10	> 10	> 10	1 to 10	> 10
CCNC1CCN(c2ccc(C(=O)Nc3cc4cn(C)nc4cc3OC)c3[nH]ccc23)CC1 [Compound 178, 4-[4-(ethylamino)-1-piperidyl]-N-(6-methoxy-2-methyl-indazol-5-yl)-1H-indole-7-carboxamide]	> 10	> 10	1 to 10	> 10	> 10	> 10	> 10	1 to 10
